Reference: US8802597B2, “Herbicidal pyrimidines” (E I du Pont de Nemours and Company, priority 2003, dated 2014)
Like-named read-outs stand apart in the source and are kept apart here.

Tests used:
Assay type in all cases: in vivo
[1] = tested on: Surinam grass (Brachiaria decumbens); assay: Test B pre/postemergence; settings: Urochloa decumbens; for pest or weed control at 125 g/ha: 125 g ai/ha; for pest or weed control at 500 g/ha: 500 g ai/ha
Summary of the method: (§1)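 Greenhouse whole-plant test; surfactant-containing non-phytotoxic solvent formulation; pre- and postemergence applications made simultaneously; post plants 2–18 cm, 1- to 4-leaf; visual scoring at 13–15 days on 0–100 scale relative to controls.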

[2] = tested on: barnyardgrass (Echinochloa crus-galli); assay: Test B pre/postemergence; settings: Echinochloa crus-galli; for pest or weed control at 125 g/ha: 125 g ai/ha; for pest or weed control at 500 g/ha: 500 g ai/ha
Summary of the method: as §1

[3] = tested on: cocklebur (Xanthium strumarium); assay: Test B pre/postemergence; settings: Xanthium strumarium; for pest or weed control at 125 g/ha: 125 g ai/ha; for pest or weed control at 500 g/ha: 500 g ai/ha
Summary of the method: as §1

corn (Zea mays) = assay: Test B pre/postemergence; settings: Zea mays
Summary of the method: as §1

[4] = tested on: crabgrass (Digitaria sanguinalis); assay: Test B pre/postemergence; settings: Digitaria sanguinalis; for pest or weed control at 125 g/ha: 125 g ai/ha; for pest or weed control at 500 g/ha: 500 g ai/ha
Summary of the method: as §1

[5] = tested on: giant foxtail (Setaria faberii); assay: Test B pre/postemergence; settings: Setaria faberi; for pest or weed control at 125 g/ha: 125 g ai/ha; for pest or weed control at 500 g/ha: 500 g ai/ha
Summary of the method: as §1

[6] = tested on: lambsquarters (Chenopodium album); assay: Test B pre/postemergence; settings: Chenopodium album; for pest or weed control at 125 g/ha: 125 g ai/ha; for pest or weed control at 500 g/ha: 500 g ai/ha
Summary of the method: as §1

[7] = tested on: morningglory (Ipomoea coccinea); assay: Test B pre/postemergence; settings: Ipomoea; for pest or weed control at 125 g/ha: 125 g ai/ha; for pest or weed control at 500 g/ha: 500 g ai/ha
Summary of the method: as §1

[8] = tested on: pigweed (Amaranthus retroflexus); assay: Test B pre/postemergence; settings: Amaranthus retroflexus; for pest or weed control at 125 g/ha: 125 g ai/ha; for pest or weed control at 500 g/ha: 500 g ai/ha
Summary of the method: as §1

[9] = tested on: velvetleaf (Abutilon theophrasti); assay: Test B pre/postemergence; settings: Abutilon theophrasti; for pest or weed control at 125 g/ha: 125 g ai/ha; for pest or weed control at 500 g/ha: 500 g ai/ha
Summary of the method: as §1

[10] = tested on: wheat (Triticum aestivum); assay: Test B pre/postemergence; settings: Triticum aestivum; for plant injury at 125 g/ha: 125 g ai/ha; for plant injury at 500 g/ha: 500 g ai/ha
Summary of the method: as §1

[11] = tested on: blackgrass (Alopecurus myosuroides); assay: Test B postemergence; settings: Alopecurus myosuroides, post-emergence
Summary of the method: as §1

wild oat (Avena fatua) = assay: Test B postemergence; settings: Avena fatua, post-emergence
Summary of the method: as §1

[12] = tested on: barnyardgrass (Echinochloa crus-galli); assay: Test B flooded paddy test; settings: Echinochloa crus-galli, Flood, 1000 g ai/ha; scale 0 (no effect) to 100 (complete control); read-out: Plant response rating, Barnyardgrass
Summary of the method: (§2)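 Visual injury scoring (0 = no effect, 100 = complete control) versus controls made 13 to 15 days after treatment in the greenhouse. Test species were grown in flooded paddy to the 2-leaf stage: rice, barnyardgrass, umbrella sedge, duck salad.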

[13] = tested on: duck salad (Heteranthera limosa); assay: Test B flooded paddy test; settings: Heteranthera limosa, Flood, 1000 g ai/ha; scale 0 to 100; read-out: Plant response rating, Ducksalad
Summary of the method: as §2

rice (Oryza sativa) = assay: Test B flooded paddy test; settings: Oryza sativa, Flood, 1000 g ai/ha; scale 0 to 100; read-out: Plant response rating, Rice
Summary of the method: as §2

[14] = tested on: umbrella sedge (Cyperus difformis); assay: Test B flooded paddy test; settings: Cyperus difformis, Flood, 1000 g ai/ha; scale 0 to 100; read-out: Plant response rating, Sedge, Umbrella
Summary of the method: as §2

[15] = pre-emergence, Preemergence, scale 0 to 100 (0 no effect, 100 complete control), read-out: Plant response rating, Wheat

`CCOC(=O)c1nc(C(C)(C)C)nc(N)c1Br` [Compound 36] was tested, and the pest or weed control at 125 g/ha ([1]; post-emergence, Postemergence, scale 0 to 100 (0 no effect, 100 complete control), read-out: Surinam Grass plant response rating) was 0%, the pest or weed control at 500 g/ha ([1]; post-emergence, Postemergence, scale 0 to 100, read-out: Plant response rating, Surinam Grass) was 0% and the pest or weed control at 125 g/ha ([1]; pre-emergence, Preemergence, scale 0 to 100 (0 no effect, 100 complete control), read-out: Plant response rating, Surinam Grass) was 0%. The pest or weed control at 500 g/ha ([1]; pre-emergence, Preemergence, scale 0 to 100 (0 no effect, 100 complete control), read-out: Surinam Grass plant response rating) was 0%, the pest or weed control at 125 g/ha ([2]; post-emergence, Postemergence, scale 0 to 100 (0 no effect, 100 complete control), read-out: Barnyardgrass plant response rating) was 0% and the pest or weed control at 500 g/ha ([2]; post-emergence, Postemergence, scale 0 to 100, read-out: Plant response rating, Barnyardgrass) was 0%. For the same molecule, the pest or weed control at 125 g/ha ([2]; pre-emergence, Preemergence, scale 0 to 100 (0 no effect, 100 complete control), read-out: Plant response rating, Barnyardgrass) was 0%, the pest or weed control at 500 g/ha ([2]; pre-emergence, Preemergence, scale 0 to 100 (0 no effect, 100 complete control), read-out: Barnyardgrass plant response rating) was 0% and the pest or weed control at 125 g/ha ([3]; post-emergence, Postemergence, scale 0 to 100 (0 no effect, 100 complete control), read-out: Cocklebur plant response rating) was 20%. The pest or weed control at 500 g/ha ([3]; post-emergence, Postemergence, scale 0 to 100, read-out: Plant response rating, Cocklebur) was 70%, the pest or weed control at 125 g/ha ([3]; pre-emergence, Preemergence, scale 0 to 100 (0 no effect, 100 complete control), read-out: Plant response rating, Cocklebur) was 10% and the pest or weed control at 500 g/ha ([3]; pre-emergence, Preemergence, scale 0 to 100 (0 no effect, 100 complete control), read-out: Cocklebur plant response rating) was 60%. For the same molecule, the plant injury at 125 g/ha (corn (Zea mays); post-emergence, Postemergence, 125 g ai/ha, scale 0 to 100 (0 no effect, 100 complete control), read-out: Corn plant response rating) was 0%, the Corn plant response rating (crop injury, 0 = no effect, 100 = complete kill) at 500 g/ha (corn (Zea mays); post-emergence, Postemergence, 500 g ai/ha, scale 0 to 100) was 0% and the Corn plant response rating (crop injury, 0 = no effect, 100 = complete kill) at 125 g/ha (corn (Zea mays); pre-emergence, Preemergence, 125 g ai/ha, scale 0 to 100 (0 no effect, 100 complete control)) was 0%. The plant injury at 500 g/ha (corn (Zea mays); pre-emergence, Preemergence, 500 g ai/ha, scale 0 to 100 (0 no effect, 100 complete control), read-out: Corn plant response rating) was 0%, the pest or weed control at 125 g/ha ([4]; post-emergence, Postemergence, scale 0 to 100 (0 no effect, 100 complete control), read-out: Crabgrass plant response rating) was 0% and the pest or weed control at 500 g/ha ([4]; post-emergence, Postemergence, scale 0 to 100, read-out: Plant response rating, Crabgrass) was 0%. The pest or weed control at 125 g/ha ([4]; pre-emergence, Preemergence, scale 0 to 100 (0 no effect, 100 complete control), read-out: Plant response rating, Crabgrass) was 0%, the pest or weed control at 500 g/ha ([4]; pre-emergence, Preemergence, scale 0 to 100 (0 no effect, 100 complete control), read-out: Crabgrass plant response rating) was 0% and the pest or weed control at 125 g/ha ([5]; post-emergence, Postemergence, scale 0 to 100 (0 no effect, 100 complete control), read-out: Foxtail, Giant plant response rating) was 0%. It also gave a pest or weed control at 500 g/ha ([5]; post-emergence, Postemergence, scale 0 to 100, read-out: Plant response rating, Foxtail, Giant) of 10%, a pest or weed control at 125 g/ha ([5]; pre-emergence, Preemergence, scale 0 to 100 (0 no effect, 100 complete control), read-out: Plant response rating, Foxtail, Giant) of 0% and a pest or weed control at 500 g/ha ([5]; pre-emergence, Preemergence, scale 0 to 100 (0 no effect, 100 complete control), read-out: Foxtail, Giant plant response rating) of 0%. For the same molecule, the pest or weed control at 125 g/ha ([6]; post-emergence, Postemergence, scale 0 to 100 (0 no effect, 100 complete control), read-out: Lambsquarters plant response rating) was 40%, the pest or weed control at 500 g/ha ([6]; post-emergence, Postemergence, scale 0 to 100, read-out: Plant response rating, Lambsquarters) was 50% and the pest or weed control at 125 g/ha ([6]; pre-emergence, Preemergence, scale 0 to 100 (0 no effect, 100 complete control), read-out: Plant response rating, Lambsquarters) was 0%. The pest or weed control at 500 g/ha ([6]; pre-emergence, Preemergence, scale 0 to 100 (0 no effect, 100 complete control), read-out: Lambsquarters plant response rating) was 40%, the pest or weed control at 125 g/ha ([7]; post-emergence, Postemergence, scale 0 to 100 (0 no effect, 100 complete control), read-out: Morningglory plant response rating) was 10% and the pest or weed control at 500 g/ha ([7]; post-emergence, Postemergence, scale 0 to 100, read-out: Plant response rating, Morningglory) was 70%. The pest or weed control at 125 g/ha ([7]; pre-emergence, Preemergence, scale 0 to 100 (0 no effect, 100 complete control), read-out: Plant response rating, Morningglory) was 0%, the pest or weed control at 500 g/ha ([7]; pre-emergence, Preemergence, scale 0 to 100 (0 no effect, 100 complete control), read-out: Morningglory plant response rating) was 0% and the pest or weed control at 125 g/ha ([8]; post-emergence, Postemergence, scale 0 to 100 (0 no effect, 100 complete control), read-out: Pigweed plant response rating) was 20%. For the same molecule, the pest or weed control at 500 g/ha ([8]; post-emergence, Postemergence, scale 0 to 100, read-out: Plant response rating, Pigweed) was 30%, the pest or weed control at 125 g/ha ([8]; pre-emergence, Preemergence, scale 0 to 100 (0 no effect, 100 complete control), read-out: Plant response rating, Pigweed) was 0% and the pest or weed control at 500 g/ha ([8]; pre-emergence, Preemergence, scale 0 to 100 (0 no effect, 100 complete control), read-out: Pigweed plant response rating) was 20%. For the same molecule, the pest or weed control at 125 g/ha ([9]; post-emergence, Postemergence, scale 0 to 100 (0 no effect, 100 complete control), read-out: Velvetleaf plant response rating) was 20%, the pest or weed control at 500 g/ha ([9]; post-emergence, Postemergence, scale 0 to 100, read-out: Plant response rating, Velvetleaf) was 40% and the pest or weed control at 125 g/ha ([9]; pre-emergence, Preemergence, scale 0 to 100 (0 no effect, 100 complete control), read-out: Plant response rating, Velvetleaf) was 10%. The pest or weed control at 500 g/ha ([9]; pre-emergence, Preemergence, scale 0 to 100 (0 no effect, 100 complete control), read-out: Velvetleaf plant response rating) was 40%, the plant injury at 125 g/ha ([10]; post-emergence, Postemergence, scale 0 to 100 (0 no effect, 100 complete control), read-out: Wheat plant response rating) was 0% and the plant injury at 500 g/ha ([10]; post-emergence, Postemergence, scale 0 to 100, read-out: Plant response rating, Wheat) was 40%. For the same molecule, the plant injury at 125 g/ha [10, 15] was 0%, the plant injury at 500 g/ha [10, 15] was 0% and the pest or weed control at 125 g/ha ([11]; 125 g ai/ha, scale 0 to 100 (0 no effect, 100 complete control), read-out: Blackgrass plant response rating) was 0%. For the same molecule, the pest or weed control at 500 g/ha ([11]; 500 g ai/ha, scale 0 to 100, read-out: Plant response rating, Blackgrass) was 40%, the pest or weed control at 125 g/ha (wild oat (Avena fatua); 125 g ai/ha, scale 0 to 100 (0 no effect, 100 complete control), read-out: Oat, Wild plant response rating) was 0% and the pest or weed control at 500 g/ha (wild oat (Avena fatua); 500 g ai/ha, scale 0 to 100, read-out: Plant response rating, Oat, Wild) was 40%. It also gave a pest or weed control at 1000 g/ha [12] of 0%, a pest or weed control at 1000 g/ha [13] of 0% and a plant injury at 1000 g/ha (rice (Oryza sativa)) of 0%. It also gave a pest or weed control at 1000 g/ha [14] of 0%.
